From patent US20210045385A1, “PYRIDAZINONE-SUBSTITUTED KETOXIMES AS HERBICIDES” (FMC Corporation, priority 2018, published 2021)

Columns and labels:
Type in all cases: in vivo
[1] = system: ducksalad (Heteranhera limosa); assay: Test B flooded paddy test, visual plant response rating; conditions: 250 g ai/ha, Flood, applied to paddy water, 2-leaf stage, evaluated after 13 to 15 days
Procedure, shortened: (§1)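 Compounds added straight into paddy water of pots flooded to 3 cm, with 2-leaf-stage plants of the four species; water level held throughout.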

[2] = system: barnyardgrass (Echinochloa crus-galli); assay: as above; conditions: 250 g ai/ha, Flood, applied to paddy water, 2-leaf stage, evaluated after 13 to 15 days
Procedure, shortened: as §1

[3] = system: rice (Oryza sativa); assay: as above; conditions: 250 g ai/ha, Flood, applied to paddy water, 2-leaf stage, evaluated after 13 to 15 days
Procedure, shortened: as §1

[4] = system: sedge, umbrella (small-flower umbrella sedge, Cyperus difformis); assay: as above; conditions: 250 g ai/ha, Flood, applied to paddy water, 2-leaf stage, evaluated after 13 to 15 days
Procedure, shortened: as §1

[5] = system: ragweed (common ragweed, Ambrosia elatior); assay: Test A postemergence, visual plant response rating; conditions: for Ragweed plant response rating (0 to 100 scale): 500 g ai/ha, postemergence, 0 is no effect, 100 is complete control; for Ragweed plant response rating: Postemergence, 125 g ai/ha, 0 to 100 scale (0 no effect, 100 complete control)
Procedure, shortened: (§2)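 Ratings use a 0–100 visual scale (100 = complete control) against untreated controls, scored about 10 days after greenhouse treatment. Test chemicals were formulated in surfactant-containing non-phytotoxic solvent and applied either as soil spray after planting (preemergence) or onto one- to two-leaf, 2–10 cm plants (postemergence).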

[6] = system: barnyardgrass (Echinochloa crus-galli); assay: Test A postemergence, visual plant response rating; conditions: for Barnyardgrass plant response rating (0 to 100 scale): 500 g ai/ha, postemergence, 0 is no effect, 100 is complete control; for Barnyardgrass plant response rating: Postemergence, 125 g ai/ha, 0 to 100 scale (0 no effect, 100 complete control)
Procedure, shortened: as §2

[7] = system: corn (Zea mays); assay: Test A postemergence, visual plant response rating; conditions: for Corn plant response rating (0 to 100 scale): 500 g ai/ha, postemergence, 0 is no effect, 100 is complete control; for Corn plant response rating: Postemergence, 125 g ai/ha, 0 to 100 scale (0 no effect, 100 complete control)
Procedure, shortened: as §2

[8] = system: blackgrass (Alopecurus myosuroides); assay: Test A postemergence, visual plant response rating; conditions: for Blackgrass plant response rating (0 to 100 scale): 500 g ai/ha, postemergence, 0 is no effect, 100 is complete control; for Blackgrass plant response rating: Postemergence, 125 g ai/ha, 0 to 100 scale (0 no effect, 100 complete control)
Procedure, shortened: as §2

[9] = system: foxtail, giant (giant foxtail, Setaria faberii); assay: Test A postemergence, visual plant response rating; conditions: for Foxtail, Giant plant response rating (0 to 100 scale): 500 g ai/ha, postemergence, 0 is no effect, 100 is complete control; for Foxtail, Giant plant response rating: Postemergence, 125 g ai/ha, 0 to 100 scale (0 no effect, 100 complete control)
Procedure, shortened: as §2

[10] = system: galium (catchweed bedstraw, Galium aparine); assay: Test A postemergence, visual plant response rating; conditions: for Galium plant response rating (0 to 100 scale): 500 g ai/ha, postemergence, 0 is no effect, 100 is complete control; for Galium plant response rating: Postemergence, 125 g ai/ha, 0 to 100 scale (0 no effect, 100 complete control)
Procedure, shortened: as §2

[11] = system: wheat (Triticum aestivum); assay: Test A postemergence, visual plant response rating; conditions: for Wheat plant response rating (0 to 100 scale): 500 g ai/ha, postemergence, 0 is no effect, 100 is complete control; for Wheat plant response rating: Postemergence, 125 g ai/ha, 0 to 100 scale (0 no effect, 100 complete control)
Procedure, shortened: as §2

[12] = system: pigweed (Amaranthus retroflexus); assay: Test A postemergence, visual plant response rating; conditions: for Pigweed plant response rating (0 to 100 scale): 500 g ai/ha, postemergence, 0 is no effect, 100 is complete control; for Pigweed plant response rating: Postemergence, 125 g ai/ha, 0 to 100 scale (0 no effect, 100 complete control)
Procedure, shortened: as §2

[13] = system: Italian ryegrass (Lolium multiflorum); assay: Test A postemergence, visual plant response rating; conditions: for Ryegrass, Italian plant response rating (0 to 100 scale): 500 g ai/ha, postemergence, 0 is no effect, 100 is complete control; for Ryegrass, Italian plant response rating: Postemergence, 125 g ai/ha, 0 to 100 scale (0 no effect, 100 complete control)
Procedure, shortened: as §2

[14] = system: kochia (Kochia scoparia); assay: Test A postemergence, visual plant response rating; conditions: for Kochia plant response rating (0 to 100 scale): 500 g ai/ha, postemergence, 0 is no effect, 100 is complete control; for Kochia plant response rating: Postemergence, 125 g ai/ha, 0 to 100 scale (0 no effect, 100 complete control)
Procedure, shortened: as §2

[15] = system: ragweed (common ragweed, Ambrosia elatior); assay: Test A preemergence, visual plant response rating; conditions: for Ragweed plant response rating: 125 g ai/ha, preemergence, 0 to 100 scale, 0 no effect, 100 complete control; for Ragweed plant response rating (0 to 100 scale): 500 g ai/ha Preemergence, approx. 10 days
Procedure, shortened: as §2

[16] = system: barnyardgrass (Echinochloa crus-galli); assay: Test A preemergence, visual plant response rating; conditions: for Barnyardgrass plant response rating: 125 g ai/ha, preemergence, 0 to 100 scale, 0 no effect, 100 complete control; for Barnyardgrass plant response rating (0 to 100 scale): 500 g ai/ha Preemergence, approx. 10 days
Procedure, shortened: as §2

[17] = system: foxtail, giant (giant foxtail, Setaria faberii); assay: Test A preemergence, visual plant response rating; conditions: for Foxtail, Giant plant response rating: 125 g ai/ha, preemergence, 0 to 100 scale, 0 no effect, 100 complete control; for Foxtail, Giant plant response rating (0 to 100 scale): 500 g ai/ha Preemergence, approx. 10 days
Procedure, shortened: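 Compared with untreated controls, treated plants received a visual injury score on a 0–100 scale around 10 days after application. The compound, in a non-phytotoxic solvent with surfactant, was given as a preemergence soil spray or postemergence at the one- to two-leaf stage.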

[18] = system: pigweed (Amaranthus retroflexus); assay: Test A preemergence, visual plant response rating; conditions: for Pigweed plant response rating: 125 g ai/ha, preemergence, 0 to 100 scale, 0 no effect, 100 complete control; for Pigweed plant response rating (0 to 100 scale): 500 g ai/ha Preemergence, approx. 10 days
Procedure, shortened: as §2

[19] = system: Italian ryegrass (Lolium multiflorum); assay: Test A preemergence, visual plant response rating; conditions: for Ryegrass, Italian plant response rating: 125 g ai/ha, preemergence, 0 to 100 scale, 0 no effect, 100 complete control; for Ryegrass, Italian plant response rating (0 to 100 scale): 500 g ai/ha Preemergence, approx. 10 days
Procedure, shortened: as §2

[20] = system: kochia (Kochia scoparia); assay: Test A preemergence, visual plant response rating; conditions: for Kochia plant response rating: 125 g ai/ha, preemergence, 0 to 100 scale, 0 no effect, 100 complete control; for Kochia plant response rating (0 to 100 scale): 500 g ai/ha Preemergence, approx. 10 days
Procedure, shortened: as §2

Row | SMILES | Plant response rating, Ducksalad (0 to 100 scale, 0 is no effect, 100 is complete control) [1] | Plant response rating, Barnyardgrass (0 to 100 scale, 0 is no effect, 100 is complete control) [2] | Plant response rating, Rice (0 to 100 scale, 0 is no effect, 100 is complete control) [3] | Plant response rating, Sedge, Umbrella (0 to 100 scale, 0 is no effect, 100 is complete control) [4] | Ragweed plant response rating (0 to 100 scale) [5] | Ragweed plant response rating [5] | Barnyardgrass plant response rating (0 to 100 scale) [6] | Barnyardgrass plant response rating [6] | Corn plant response rating (0 to 100 scale) [7] | Corn plant response rating [7] | Blackgrass plant response rating (0 to 100 scale) [8] | Blackgrass plant response rating [8] | Foxtail, Giant plant response rating (0 to 100 scale) [9] | Foxtail, Giant plant response rating [9] | Galium plant response rating (0 to 100 scale) [10] | Galium plant response rating [10] | Wheat plant response rating (0 to 100 scale) [11] | Wheat plant response rating [11] | Pigweed plant response rating (0 to 100 scale) [12] | Pigweed plant response rating [12] | also measured
1 | CO/N=C(/c1cc(Cl)ccc1C(F)(F)F)c1c(O)c(C)nn(C)c1=O [Compound 95] | 0 | 0 | 0 | 0 | 90 | 80 | 60 | 50 | 40 | 0 | 100 | 60 | 80 | 60 | 90 | 80 | 70 | 40 | 80 | 70 | Ryegrass, Italian plant response rating (0 to 100 scale) [13]: 100; Ryegrass, Italian plant response rating [13]: 80; Kochia plant response rating (0 to 100 scale) [14]: 80; Kochia plant response rating [14]: 60; Ragweed plant response rating [15]: 30; Ragweed plant response rating (0 to 100 scale) [15]: 100; Barnyardgrass plant response rating [16]: 60; Barnyardgrass plant response rating (0 to 100 scale) [16]: 60; Foxtail, Giant plant response rating [17]: 80; Foxtail, Giant plant response rating (0 to 100 scale) [17]: 100; Pigweed plant response rating [18]: 50; Pigweed plant response rating (0 to 100 scale) [18]: 100; Ryegrass, Italian plant response rating [19]: 90; Ryegrass, Italian plant response rating (0 to 100 scale) [19]: 100; Kochia plant response rating [20]: 10; Kochia plant response rating (0 to 100 scale) [20]: 70
2 | CCCO/N=C(/c1c(O)c(C)nn(C)c1=O)c1cccc2ccccc12 [Compound 81] | 0 | 0 | 0 | 0 | 90 | 80 | 70 | 40 | 20 | 20 | 80 | 70 | 80 | 60 | 90 | 80 | 0 | 0 | 90 | 60 | Ryegrass, Italian plant response rating (0 to 100 scale) [13]: 20; Ryegrass, Italian plant response rating [13]: 30; Kochia plant response rating (0 to 100 scale) [14]: 60; Kochia plant response rating [14]: 40; Ragweed plant response rating [15]: 90; Ragweed plant response rating (0 to 100 scale) [15]: 100; Barnyardgrass plant response rating [16]: 60; Barnyardgrass plant response rating (0 to 100 scale) [16]: 70; Foxtail, Giant plant response rating [17]: 60; Foxtail, Giant plant response rating (0 to 100 scale) [17]: 100; Pigweed plant response rating [18]: 20; Pigweed plant response rating (0 to 100 scale) [18]: 100; Ryegrass, Italian plant response rating [19]: 20; Ryegrass, Italian plant response rating (0 to 100 scale) [19]: 50; Kochia plant response rating [20]: 10; Kochia plant response rating (0 to 100 scale) [20]: 10
3 | C#CCO/N=C(\c1c(O)c(C)nn(C)c1=O)c1ccc(F)c2ccccc12 [Compound 108, 4-[(Z)-(4-fluoro-1-naphthalenyl)(2-propyn-1-yloxy)imino]methyl-5-hydroxy-2,6-dimethyl-3(2H)-pyridazinone] | 0 | 0 | 0 | 0 | 100 | 80 | 90 | 90 | 80 | 30 | 100 | 100 | 90 | 80 | 100 | 100 | 80 | 70 | 100 | 90 | Ryegrass, Italian plant response rating (0 to 100 scale) [13]: 100; Ryegrass, Italian plant response rating [13]: 100; Kochia plant response rating (0 to 100 scale) [14]: 80; Kochia plant response rating [14]: 60; Ragweed plant response rating [15]: 90; Ragweed plant response rating (0 to 100 scale) [15]: 100; Barnyardgrass plant response rating [16]: 90; Barnyardgrass plant response rating (0 to 100 scale) [16]: 100; Foxtail, Giant plant response rating [17]: 100; Foxtail, Giant plant response rating (0 to 100 scale) [17]: 100; Pigweed plant response rating [18]: 100; Pigweed plant response rating (0 to 100 scale) [18]: 100; Ryegrass, Italian plant response rating [19]: 100; Ryegrass, Italian plant response rating (0 to 100 scale) [19]: 100; Kochia plant response rating [20]: 50; Kochia plant response rating (0 to 100 scale) [20]: 100
